# The source made the active and inactive calls. The calls are words filed in the database; no cut-off is given here.
# Experiments:
# [1] = Acute toxicity in C57BL/6J mouse assessed as signs of death or toxicity at 0.5 g/Kg single dose monitored over 14 days; conditions: in vivo, 500 mg/kg, 336 h, time 14 day
# [2] = Acute toxicity in C57BL/6J mouse assessed as pathological damages in lung at 0.5 g/Kg single dose by HE staining based analysis; format: tissue-based; conditions: in vivo, 500 mg/kg
# [3] = tested on: Mus musculus; assay: Anti-oxidant effect in level in STZ-induced diabetic C57BL/6J mouse model assessed as […] in catalase (CAT) level in serum at 100 mg/kg treated via gavage; format: functional, organism-based
# [4] = tested on: Mus musculus; assay: Reduction in blood glucose concentration in male C57BL/6J mouse assessed as peak blood glucose and glucose AUC preadministered for 30 mins via gavage followed by treated 2 g/Kg of sucrose and measured up to 120 mins post sucrose challenge by sucrose loading test; format: functional, organism-based; conditions: dose 100.0 mg/kg, time 150.0 min
# [5] = Acute toxicity in C57BL/6J mouse assessed as change in serum AST level at 0.5 g/Kg single dose; conditions: in vivo, 500 mg/kg
# [6] = molecular target: T1, Alpha-glucosidase (Saccharomyces cerevisiae S288c) (UniProt P53341+P38158+P07265); assay: Binding affinity to alpha-glucosidase assessed as quenching by measuring decrease in fluorescent intensity by […] fluorescence spectroscopy; format: protein assay
# [7] = tested on: Mus musculus; assay: Reduction in triglycerides (TG) level in STZ-induced diabetic C57BL/6J mouse model treated via gavage by blood biochemistry index test; format: functional, organism-based; conditions: dose 25-100 mg/kg
# [8] = molecular target: T2, Alpha-glucosidase (Saccharomyces cerevisiae S288c, UniProt P53341+P38158+P07265); assay: Binding affinity to alpha-glucosidase assessed as inhibition constant for protein substrate (alpha-Glu-pNPG) complex; format: protein assay
# [9] = Toxicity in STZ-induced diabetic C57BL/6J mouse model assessed as body weight at 100 mg/kg treated via gavage measured after 7 days; format: organism-based; conditions: in vivo, po, 168 h, time 7 day
# [10] = molecular target: T1, Alpha-glucosidase (Saccharomyces cerevisiae S288c); assay: Binding affinity to alpha-glucosidase assessed as quenching by measuring decrease in fluorescent intensity at 0 to 8 uM; format: protein assay; conditions: dose 0-8 µM
# [11] = Acute toxicity in C57BL/6J mouse assessed as change in serum ALT level at 0.5 g/Kg single dose; conditions: in vivo, 500 mg/kg
# [12] = molecular target: T1, Alpha-glucosidase (Saccharomyces cerevisiae S288c); assay: Mixed-type of inhibition at alpha-glucosidase assessed as decrease in Vmax by Lineweaver-Burk plot analysis; format: protein assay
# [13] = molecular target: T1, Alpha-glucosidase (Saccharomyces cerevisiae S288c); assay: Binding affinity to alpha-glucosidase assessed as fluorescent intensity (lambda-ex/lambda-em 285/320 nm) by 3D fluorescence spectra; format: protein assay
# [14] = tested on: Mus musculus; assay: In vivo hypoglycemic effect in STZ-induced diabetic C57BL/6J mouse model assessed as decrease in postprandial blood glucose at 100 mg/kg treated via gavage measured up to 120 mins by Oral glucose tolerance test (OGTT); format: functional, organism-based
# [15] = molecular target: T1, Alpha-glucosidase (Saccharomyces cerevisiae S288c); assay: Binding affinity to alpha-glucosidase assessed as fluorescent intensity (lambda-ex/lambda-em 276/332 nm) by 3D fluorescence spectra; format: protein assay
# [16] = tested on: Mus musculus; assay: Reduction in low density lipoproteins (LDL) level in STZ-induced diabetic C57BL/6J mouse model treated via gavage by blood biochemistry index test; format: functional, organism-based
# [17] = molecular target: T1, Alpha-glucosidase (Saccharomyces cerevisiae S288c); assay: Mixed-type of inhibition at alpha-glucosidase assessed as decrease in Km by Lineweaver-Burk plot analysis; format: protein assay
# [18] = Acute toxicity in C57BL/6J mouse assessed as change in serum BUN level at 0.5 g/Kg single dose; conditions: in vivo, 500 mg/kg
# [19] = Acute toxicity in C57BL/6J mouse assessed as pathological damages in brain at 0.5 g/Kg single dose by HE staining based analysis; format: tissue-based; conditions: in vivo, 500 mg/kg
# [20] = tested on: alpha-glucosidase (unknown origin); assay: Selectivity index, ratio of CC50 for Cytotoxicity against human LO2 cells to IC50 for alpha-glucosidase (unknown origin); format: toxicity, cell-based, L02; conditions: read-out: Selectivity Index
# [21] = tested on: Mus musculus; assay: Anti-oxidant effect in level in STZ-induced diabetic C57BL/6J mouse model assessed as […] in total superoxide dismutase (T-SOD) level in serum at 100 mg/kg treated via gavage; format: functional, organism-based
# [22] = molecular target: T2, Alpha-glucosidase; assay: Binding affinity to alpha-glucosidase assessed as inhibition constant; format: protein assay
# [23] = tested on: Mus musculus; assay: Reduction in total cholesterol (CHO) level in STZ-induced diabetic C57BL/6J mouse model treated via gavage by blood biochemistry index test; format: functional, organism-based
# [24] = Acute toxicity in C57BL/6J mouse assessed as pathological damages in kidney at 0.5 g/Kg single dose by HE staining based analysis; format: tissue-based; conditions: in vivo, 500 mg/kg
# [25] = Acute toxicity in C57BL/6J mouse assessed as pathological damages in heart at 0.5 g/Kg single dose by HE staining based analysis; format: tissue-based; conditions: in vivo, 500 mg/kg
# [26] = Acute toxicity in C57BL/6J mouse assessed as pathological damages in liver at 0.5 g/Kg single dose by HE staining based analysis; format: tissue-based; conditions: in vivo, 500 mg/kg
# [27] = tested on: Mus musculus; assay: In vivo hypoglycemic effect in STZ-induced diabetic C57BL/6J mouse model assessed as decrease in fasting blood glucose at 100 mg/kg treated via gavage measured after 7 days by fasting blood glucose test; format: functional, organism-based; conditions: time 7.0 day
# [28] = Acute toxicity in C57BL/6J mouse assessed as pathological damages in spleen at 0.5 g/Kg single dose by HE staining based analysis; format: tissue-based; conditions: in vivo, 500 mg/kg
# [29] = Acute toxicity in C57BL/6J mouse assessed as change in serum ALB level at 0.5 g/Kg single dose; conditions: in vivo, 500 mg/kg
# [30] = Cytotoxicity against human LO2 cells assessed as cell viability measured after 24 hrs by MTT assay; format: toxicity, cell-based, L02
# [31] = molecular target: T1, Alpha-glucosidase (Saccharomyces cerevisiae S288c); assay: Inhibition of alpha-glucosidase using 4-Nitrophenyl-[…]-D-glucopyranoside (pNPG) as substrate assessed as inhibition rate at 30 uM relative control; format: protein assay
# [32] = tested on: Mus musculus; assay: Anti-oxidant effect in level in STZ-induced diabetic C57BL/6J mouse model assessed as […] in malondialdehyde (MDA) level in serum at 100 mg/kg treated via gavage; format: functional, organism-based
# [33] = tested on: Mus musculus; assay: Anti-oxidant effect in level in STZ-induced diabetic C57BL/6J mouse model assessed as […] in glutathione (GSH) level in serum at 100 mg/kg treated via gavage; format: functional, organism-based
# [34] = tested on: Mus musculus; assay: Induction of high density lipoproteins (HDL) level in STZ-induced diabetic C57BL/6J mouse model treated via gavage by blood biochemistry index test; format: functional, organism-based
# [35] = molecular target: T2, Alpha-glucosidase; assay: Inhibition of alpha-glucosidase using 4-Nitrophenyl-[…]-D-glucopyranoside (pNPG) as substrate; format: protein assay
compound,measurement,setting,value
CC1(C)CC[C@]2(C(=O)NCc3cn(-c4ccc(Cl)c(Cl)c4)nn3)[C@H](O)C[C@]3(C)C(=CC[C@@H]4[C@@]5(C)CC[C@H](O)C(C)(C)[C@@H]5CC[C@]43C)[C@@H]2C1,Activity,[1],Non-toxic
same,Activity,[2],Non-toxic
same,Activity,[3],Active
same,Activity,[4],Dose-dependent-effect; Compound Showed Comparable Effect To Acarbose
same,Activity,[5],Non-toxic
same,Activity,[6],Active
same,Activity,[7],Dose-dependent-effect
same,Ki,[8],10.23 µM
same,Activity,[9],Non-toxic
same,Activity,[10],Active
same,Activity,[11],Non-toxic
same,inhibition,[12],Active
same,Activity,[13],Active
same,Activity,[14],Active; Evidenced By Compound Showed Lower Auc Compared With Model Group
same,Activity,[15],Active
same,Activity,[16],Dose-dependent-effect
same,inhibition,[17],Active
same,Activity,[18],Non-toxic
same,Activity,[19],Non-toxic
same,selectivity ratio,[20],105
same,Activity,[21],Active
same,Ki,[22],15.31 µM
same,Activity,[23],Dose-dependent-effect
same,Activity,[24],Non-toxic
same,Activity,[25],Non-toxic
same,Activity,[26],Non-toxic
same,Activity,[27],Active
same,Activity,[28],Non-toxic
same,Activity,[29],Non-toxic
same,CC50 at 24 h,[30],287 µM
same,inhibition,[31],88.1%
same,Activity,[32],Active
same,Activity,[33],Active
same,Activity,[34],Dose-dependent-effect
same,IC50,[35],2.72 µM

# — ChEMBL document CHEMBL6109087, “Design and synthesis of azole derivatives of echinocystic acid as α-glucosidase inhibitors with hypoglycemic activity” (Eur J Med Chem, 2025)
